Measurements reported in patent EP2522328A1, “Use of resveratrol and ascorbyl-2-glucoside” (DSM IP Assets B.V., priority 2011, dated 2012).

System: AZGP1
Assay: Assessment of gene modulation in normal human epidermal melanocytes (NHEM), RT-qPCR on mRNA (PCR array mQPA H-Melanocyte-64)
Type: cell-based
Details: ascorbyl-2-glucoside 1 mg/ml
Experimental: Normal human epidermal melanocytes were cultivated for 24 hours. […] Cells were cultivated for additional 72 hours. All experimental conditions were performed in triplicate. At the end of the cultivation, the cells were harvested and washed with phosphate buffered saline (PBS) solution and immediately frozen at -80 °C. The expression of selected markers was analyzed using RT-qPCR method on mRNA extracted from cells layer for each treatment condition. The differential expression analysis was performed by PCR arrays of the screening format "mQPA H-Melanocyte-64", which focuses on 64 genes selected for their importance in pigmentation and melanocyte biology. Total RNA was extracted from each sample using TRI-Reagent®. The amount and quality of the RNA was evaluated using a lab-on-a-chip Bioanalyzer (Agilent technologies). Potential contaminants traces of DNA were removed […] The incorporation of fluorescence in amplified DNA was measured continuously during the PCR cycles. […] The value selected for RE calculations is the "output point" (Ct) of the fluorescence curve. For a given marker, the highest is the cycle number; the lowest, is the mRNA quantity. The RE value is expressed in arbitrary units (AU) according to the equation: (((1)/(2)))^NC x 10^6 [formula] Where NC is the number of cycles.

## O=C1O[C@H]([C@@H](O)CO)C(O)=C1O[C@H]1O[C@H](CO)[C@@H](O)[C@H](O)[C@H]1O [Ascorbyl-2-glucoside, 2-O-[…]-D-glucopyranosyl-L-Ascorbic acid]
Homo sapiens, Melanocyte, NHEM cells, 72 hours treatment, resveratrol 5 µg/ml, combination 5 µg/ml + 1 mg/ml, read-out: expression ratio compared to control for the gene AZGP1
  activation at 1000 µg/mL: 3%
Compared to untreated cells, NEHM cells, resveratrol 5 micrograms/ml, combination 5 microg/ml + 1mg/ml
  down-regulation of AZGP1: no significant modulation
